What was measured:
[1] = test system: transgenic C22 animals (murine CMT model, human YAC containing the PMP22 gene); experiment: Rotor-Rod test, first open trial in transgenic C22 animals; format: in vivo, mice; settings: treated with vitamin C
Method: To better understand the pathophysiology of this disease and to propose therapeutic solutions, a murine disease model was constructed in 1996 by transgenesis of a human YAC containing the PMP22 gene (Huxley et al., Human Molecular Genetics, 1996, Vol. 5, No. 5, 563-569). […] The action of vitamin C was tested in this model. A first “open” trial was carried out, without inclusion criteria, by simply separating males and females so as to rapidly determine whether a phenotypic correction effect could be seen. The Rotor-Rod test, classically used in pharmacology, was chosen as the criterion of muscle strength. […] The results, expressed in seconds, confirm that males were more severely affected (males in this line even have early mortality, since all males die before 10 months of age).

[2] = test system: C22 males (murine CMT model); experiment: Rotor-Rod test, double-blind study vitamin C versus placebo in C22 males; format: in vivo, mice; settings: 1.12 mg once a week by gavage
Method: Rotor-Rod test performance was evaluated every month (at 3 months, 4 months and 5 months). The standard deviation is indicated by the darkened section at the top of each column. […] Only males (from two litters) were used, since the degree of severity is sex-specific. […] The fact that only males were included is very important, because it is known that severity varies widely in human patients according to sex, a variability also seen in the animal models used, in which there appears to be a major modifier gene having an impact on myelination. “Genetic background” thus seems to play a significant role in the severity of the phenotype. It was therefore justified to work with individuals from a same litter. […] The animals were then evaluated in the Rotor-Rod test. The study lasted for three months (age of animals: two to five months). The results are illustrated in FIG. 1.

[3] = test system: C22 animals (murine CMT model); experiment: Bar crossing (posture) test and grip test, third study; format: in vivo, mice
Method: FIG. 2: A second series of preclinical tests with the same design as the first series (described in FIG. 1) was carried out. Animals were tested after one month and two months of treatment using the bar crossing test (the longer the animal takes to cross the bar or the more it slips off, the worse the locomotor performance). Animals were also tested in the grip test which measures the traction strength that must be applied for the animal to release the bar (the higher this value the better the performance). To confirm these findings and further investigate the mechanism of phenotypic correction, a third study was carried out. Two tests were used: a posture test (crossing a bar that gets progressively narrower) and a test of muscle strength, the “grip test”. FIG. 2 illustrates the results after two months of treatment. […] This test is a good indicator of muscle strength.

C22 mice = experiment: Histologic analysis of sciatic nerve, percentage of myelinated fibers; format: in vivo; settings: C22 mice treated for three months
Method: The sciatic nerve was harvested and the percentage of myelinated fibers was determined by histologic analysis and is given in the figure on the ordinate, together with the results of a non-transgenic control (more than 95% of peripheral nerve fibers are myelinated in adults).
To obtain data on the mechanism of this phenotypic correction, the histologic features of the nerves of treated animals were studied. For this, some of the treated animals were sacrificed and a histologic analysis was performed. The percentage of myelinated nerve fibers increased with treatment (FIG. 3). This percentage was 95% for non-transgenic animals, 20-30% for untreated C22 mice and 70% for treated animals. The treatment therefore reactivated myelination, which was inhibited by overexpression of PMP22.

[4] = test system: C22 males (murine CMT model); experiment: Survival of treated C22 males under continued treatment; format: in vivo, mice; settings: continued vitamin C treatment; untreated males die before 10 months of age
From the text: The results, expressed in seconds, confirm that males were more severely affected (males in this line even have early mortality, since all males die before 10 months of age).
Performance continued to improve, even after taking into account that the animals had aged.

Structure (SMILES): O=C1O[C@H]([C@@H](O)CO)C(O)=C1O [vitamin C, ascorbic acid]
- Seconds on the bar (Rotor-Rod test), treated animals ([1]; C22 females): 45.7 ± 10 s
- Seconds on the bar (Rotor-Rod test), treated animals ([1]; C22 males): 46 ± 14 s
- Rotor-Rod test performance, first month of treatment ([2]; first month): not very effective
- Time on the bar (Rotor-Rod test), second month of treatment ([2]; from the second month): ~50 s
- Rotor-Rod test performance, third month of treatment ([2]; third month): further improved
- Bar crossing performance ([3]; after one and two months of treatment): deteriorated at the first month, then improved during the second
- Grip test (muscle strength) ([3]; after two months of treatment): improvement was also seen starting from two months of treatment
- Percentage of myelinated nerve fibers (C22 mice): 70%
- Age at which treated males were still alive [4]: still alive at age 24 months
